Measurements taken from patent US9540299B2, “MTOR-independent activator of TFEB for autophagy enhancement and uses thereof” (Hong Kong Baptist University, priority 2015, dated 2017).

Experiments:
N2a cells = assay: LysoTracker Red staining of N2a cells (lysosomal pH); format: cell-based, mouse; conditions: 1 μM, 12 hours
Protocol: N2a cells are treated with E4 (1 μM) in the presence or absence of lysosome inhibitor CQ or Torin 1 for 12 hours, the cells are loaded with LysoTracker Red, followed by taking pictures under a fluorescence microscope (FIG. 26A). The relative fluorescent intensity is quantified by using image J software (FIG. 26B). Quantification data are presented as the mean±SD from three independent experiments (low panel). **p<0.01 vs. the control (0.1% DMSO). ## p<0.05 vs. the relative absence of CQ group.
After transiently knockdown the expression of TFEB, N2a cells are treated with E4 (1 μM) for 12 hours, lysosomal activities are then detected by LysoTracker Red staining (FIG. 30A). Quantification data (FIG. 30B) are presented as the mean±SD from three independent experiments. **p<0.01 vs. the control (0.1% DMSO). ## p<0.05 vs. the relative Si-NT group.
N2a cells are transfected with mouse Tfeb siRNA and the non-target siRNA using Lipofectamine RNAiMAX (13778030, Invitrogen) and incubated at 37° C. for 72 hours.
The lysosomal pH is estimated using LysoTracker Red following manufacturer's instructions. The fluorescence intensity is observed under a DeltaVision Deconvolution Microscope (GE Healthcare) and representative cells are selected and photographed. Quantification data are acquired using ImageJ software.

wild-type (WT) SNCA = assay: Degradation of HA-tagged wild-type SNCA in inducible PC12 cells; format: cell-based; conditions: for degradation of SNCA WT: Dox 24 h then 48 h, curcumin 10 μM, analogs 1 μM
Protocol: (§1) Expression and intensity of HA-tagged wild-type (WT) or A53T mutant SNCA in inducible PC12 cells are treated with doxycycline (Dox, 2 μg/ml) for 24 h, and then treated with curcumin (10 μM), A2, B3 and C1 (1 μM) for another 48 h (A, C) in the presence or absence of chloroquine (CQ, 20 μM) and wortmannin (WM, 1 μM) (B, D). The expression of HA-SNCA is determined by western blots and quantified from three independent experiments. Corynoxine B (Cory B, 25 μM) is used as a positive control. Relative intensity is normalized to that of ACTB/β-actin. Data are presented as the mean±SD from three independent experiments. *p<0.05 vs. the control (0.1% DMSO).
(§2) N2a, Hela and Hela cells stably expressing 3×-Flag-TFEB are cultured in DMEM supplemented with 10% FBS. SH-SY5Y cells are cultured in DMEM/F12 supplemented with 10% FBS. For drug treatment, the full medium is replaced by fresh Opti-MEM I and then the compounds (in 0.1% DMSO) are added to the cells and incubated for 12 h. Inducible PC12 cells overexpressing SNCA (WT and A53T) (a kind gift from Prof. David C. Rubinsztein at Cambridge University) are grown in DMEM supplemented with 10% horse serum, 5% FBS, 50 μg/ml G418, and 150 μg/ml hygromycin B at 37° C., 10% CO2. Cells are treated with 2 μg/ml doxycycline (Dox) for 24 h to induce SNCA expression. The full medium is changed to Opti-MEM I containing the testing compounds for another 48 h.
(§3) Cells are lysed on ice in 1× Lysis Buffer (9803, Life Technologies) with complete protease inhibitor mixture (04693124001, Roche Applied Science). Animal tissues are homogenized in nine volumes of ice-cold PBS supplemented with protease inhibitors. Cytosolic and nuclear fractions are isolated using protocols similar to those described previously. Anti-Flag or TFEB antibody is added to the whole cell lysates and Dynabeads® Protein G (10003D, Life Technologies) is used for immunoprecipitation. Proteins are separated by 10-15% SDS-PAGE, transferred, and blotted with the antibodies described. The blots are then incubated with secondary antibodies or the Clean-Blot IP Detection Reagent (21230, Thermo Scientific) at room temperature for 1 h. The protein signals are detected by ECL kit (32106, Pierce) and quantified using ImageJ software.
(§4) Inducible PC12 cells are treated with doxycycline (Dox, 2 μg/ml) for 24 h to induce the expression of HA-tagged wild-type (WT) or A53T mutant SNCA, and then treated with curcumin (10 μM), A2, B3 and C1 (1 μM) for another 48 h (FIGS. 8 A, C) in the presence or absence of chloroquine (CQ, 20 μM) and wortmannin (WM, 1 μM) (FIGS. 8 B, D). The expression of HA-SNCA is determined by western blots and quantified from three independent experiments. Corynoxine B (Cory B, 25 μM) is used as a positive control. […] Corynoxine B (Cory B) is used as a positive control.

A53T mutant SNCA = assay: Degradation of HA-tagged A53T mutant SNCA in inducible PC12 cells; format: cell-based; conditions: for degradation of SNCA A53T: Dox 24 h then 48 h, curcumin 10 μM, analogs 1 μM
Protocol: as §1, §2, §3, §4

purified His-TFEB = target: T1, purified His-TFEB (Homo sapiens, UniProt P19484); assay: Binding of solid-phase compound to purified recombinant His-TFEB; conditions: 17 μmol compound powder, RIPA buffer, 2 hours at 4° C.; 55 kDa band by TFEB antibody
T1 construct: purchased ORIGENE TP760282
T1 sequence (P19484 1-476): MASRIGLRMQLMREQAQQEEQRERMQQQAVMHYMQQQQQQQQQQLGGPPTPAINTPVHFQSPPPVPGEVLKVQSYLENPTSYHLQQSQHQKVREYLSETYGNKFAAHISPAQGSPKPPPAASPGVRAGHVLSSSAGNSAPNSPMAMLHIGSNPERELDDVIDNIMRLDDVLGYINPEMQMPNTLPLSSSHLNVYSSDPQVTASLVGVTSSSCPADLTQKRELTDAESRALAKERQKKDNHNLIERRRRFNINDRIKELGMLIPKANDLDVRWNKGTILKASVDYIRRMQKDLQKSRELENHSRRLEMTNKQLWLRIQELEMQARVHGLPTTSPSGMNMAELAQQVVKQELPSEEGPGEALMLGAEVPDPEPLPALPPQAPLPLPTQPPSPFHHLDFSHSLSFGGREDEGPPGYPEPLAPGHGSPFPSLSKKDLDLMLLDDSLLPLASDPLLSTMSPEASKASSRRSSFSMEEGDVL
Protocol: Hela cells stably expressing 3×Flag-TFEB are treated with C1 (1 μM) for 12 h. Endogenous MTOR (A) and YWHA (B) are co-immunoprecipitated with Flag-TFEB. The levels of immunoprecipitated MTOR and YWHA are normalized to their corresponding levels in whole cell lysates (WCL). […] However, when MTOR and YWHA coimmunoprecipitated with Flag-TFEB after C1 treatment, interaction of MTOR and YWHA is decreased as compared with control. […] Furthermore, purified His-TFEB (TP760282, ORIGENE) is diluted in RIPA buffer and 17 μmol curcumin (6.3 mg) or C1 (5 mg) powder is added into TFEB solution and incubated for 2 hours at 4° C. with shaking. The supernatant is discarded after centrifuge. The pellet (compounds and the bound protein) is washes 4 times in RIPA buffer and the bound proteins are eluted by adding 2% SDS sampling buffer. The bound proteins are separated on 10% SDS—polyacrylamide gel and visualized by TFEB antibody (Proteintech).

SMILES | LysoTracker Red fluorescent intensity compared with vehicle control (N2a cells) | induced increase in LysoTracker Red fluorescence intensity on co-treatment with CQ (N2a cells; with CQ) | degradation of SNCA WT (wild-type (WT) SNCA; inducible PC12 cells) | degradation of SNCA A53T (A53T mutant SNCA; inducible PC12 cells) | direct binding to purified TFEB (purified His-TFEB) | activity in degrading SNCA in presence of wortmannin (WM) or CQ (wild-type (WT) SNCA; SNCA WT, WM 1 μM, CQ 20 μM, 1 μM compound) | SNCA clearance, comparison among compounds (wild-type (WT) SNCA; inducible PC12 cells, SNCA WT) | activity in degrading SNCA in presence of wortmannin (WM) or CQ (A53T mutant SNCA; SNCA A53T, WM 1 μM, CQ 20 μM, 1 μM compound) | SNCA clearance, comparison among compounds (A53T mutant SNCA; inducible PC12 cells, SNCA A53T)
O=C(/C=C/c1ccccc1I)/C=C/c1ccccc1I [E4] | significantly increases | abolishes | – | – | – | – | – | – | –
O=C(/C=C/c1ccc(O)cc1)/C=C/c1ccc(O)cc1 [B3, 1,5-bis(4-hydroxyphenyl)penta-1,4-dien-3-one] | – | – | significantly degrade | significantly degrade | – | – | – | – | –
O=C(/C=C/c1cccc(C(F)(F)F)c1)/C=C/c1cccc(C(F)(F)F)c1 [A2, 1,5-bis(3-(trifluoromethyl)phenyl)penta-1,4-dien-3-one] | – | – | significantly degrade | significantly degrade | – | – | – | – | –
COc1cc(/C=C/C(=O)CC(=O)/C=C/c2ccc(O)c(OC)c2)ccc1O [curcumin, Curcumin, reference compound] | – | – | no effect | promotes the degradation | not | – | – | – | –
COc1ccccc1/C=C/C(=O)/C=C/c1ccccc1OC [C1, 1,5-bis(2-methoxyphenyl)penta-1,4-dien-3-one] | – | – | significantly degrade | significantly degrade | can directly bind | significantly blocked | best effects | significantly blocked | best effects
